# Laboratory results from PubChem BioAssay AID248 (DTP/NCI, 2004).
# Toxic doses and inconclusive results are not listed.
# System: L1210 leukemia ip in BDF1 mice, survival T/C
# Assay: NCI In Vivo Anticancer Drug Screen. Data for tumor model L1210 Leukemia (intraperitoneal) in B6D2F1 (BDF1) mice
# Settings: higher = longer survival
# In short: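 Transplantable tumor model; survival measured in treated vs vehicle control mice. Value = treated/control.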
smiles,measurement,setting,value
CC(C)CN(C)/N=N/c1nc[nH]c1C(N)=O,T/C,"endpoint: mean survival time, dose: 33.0 mg/kg/injection, schedule: Q01DX009 (ip), vehicle: carboxymethylcellulose (CMC)",114 % of control
same,T/C,"endpoint: mean survival time, dose: 37.0 mg/kg/injection, schedule: Q01DX Z (ip), vehicle: carboxymethylcellulose (CMC)",170 % of control
same,T/C,"endpoint: mean survival time, dose: 50.0 mg/kg/injection, schedule: Q01DX Z (ip), vehicle: carboxymethylcellulose (CMC)",156 % of control
same,T/C,"endpoint: mean survival time, dose: 75.0 mg/kg/injection, schedule: Q01DX Z (ip), vehicle: carboxymethylcellulose (CMC)",167 % of control
same,T/C,"endpoint: mean survival time, dose: 80.0 mg/kg/injection, schedule: Q01DX015 (ip), vehicle: carboxymethylcellulose (CMC)",109 % of control
same,T/C,"endpoint: mean survival time, dose: 100.0 mg/kg/injection, schedule: Q01DX001 (ip), vehicle: carboxymethylcellulose (CMC)",116 % of control
same,T/C,"endpoint: mean survival time, dose: 120.0 mg/kg/injection, schedule: Q01DX009 (ip), vehicle: carboxymethylcellulose (CMC)",86 % of control
same,T/C,"endpoint: mean survival time, dose: 134.0 mg/kg/injection, schedule: Q01DX001 (ip), vehicle: carboxymethylcellulose (CMC)",106 % of control
same,T/C,"endpoint: mean survival time, dose: 134.0 mg/kg/injection, schedule: Q01DX015 (ip), vehicle: carboxymethylcellulose (CMC)",109 % of control
same,T/C,"endpoint: mean survival time, dose: 178.0 mg/kg/injection, schedule: Q01DX001 (ip), vehicle: carboxymethylcellulose (CMC)",106 % of control
same,T/C,"endpoint: mean survival time, dose: 200.0 mg/kg/injection, schedule: Q01DX001 (ip), vehicle: carboxymethylcellulose (CMC)",122 % of control
same,T/C,"endpoint: mean survival time, dose: 267.0 mg/kg/injection, schedule: Q01DX001 (ip), vehicle: carboxymethylcellulose (CMC)",110 % of control
same,T/C,"endpoint: mean survival time, dose: 400.0 mg/kg/injection, schedule: Q01DX001 (ip), vehicle: carboxymethylcellulose (CMC)",151 % of control
same,T/C,"endpoint: median survival time, dose: 12.5 mg/kg/injection, schedule: Q01DX009 (ip), vehicle: steriod suspending solution",122 % of control
same,T/C,"endpoint: median survival time, dose: 25.0 mg/kg/injection, schedule: Q01DX009 (ip), vehicle: steriod suspending solution",111 % of control
same,T/C,"endpoint: median survival time, dose: 50.0 mg/kg/injection, schedule: Q01DX011 (ip), vehicle: steriod suspending solution",175 % of control
same,T/C,"endpoint: median survival time, dose: 100.0 mg/kg/injection, schedule: Q01DX009 (ip), vehicle: steriod suspending solution",155 % of control
same,T/C,"endpoint: median survival time, dose: 100.0 mg/kg/injection, schedule: Q01DX011 (ip), vehicle: steriod suspending solution",168 % of control
Cc1cccc(C)c1NC(=O)c1ccc(Cl)cc1Cl,T/C,"endpoint: mean survival time, dose: 100.0 mg/kg/injection, schedule: Q01DX009 (ip), vehicle: Klucel (hydroxypropylcellulose) (HPC)",101 % of control
same,T/C,"endpoint: mean survival time, dose: 100.0 mg/kg/injection, schedule: Q04DX003 (ip), vehicle: Klucel (hydroxypropylcellulose) (HPC)",98 % of control
same,T/C,"endpoint: mean survival time, dose: 200.0 mg/kg/injection, schedule: Q01DX009 (ip), vehicle: Klucel (hydroxypropylcellulose) (HPC)",104 % of control
same,T/C,"endpoint: mean survival time, dose: 200.0 mg/kg/injection, schedule: Q04DX003 (ip), vehicle: Klucel (hydroxypropylcellulose) (HPC)",101 % of control
same,T/C,"endpoint: mean survival time, dose: 400.0 mg/kg/injection, schedule: Q01DX009 (ip), vehicle: Klucel (hydroxypropylcellulose) (HPC)",101 % of control
same,T/C,"endpoint: mean survival time, dose: 400.0 mg/kg/injection, schedule: Q04DX003 (ip), vehicle: Klucel (hydroxypropylcellulose) (HPC)",95 % of control
CNC1C(OC2C(OC)OC(C)C2(O)CO)OC(CO)C(O)C1O (centres undefined),T/C,"endpoint: mean survival time, dose: 100.0 mg/kg/injection, schedule: Q04DX003 (ip), vehicle: saline",110 % of control
same,T/C,"endpoint: mean survival time, dose: 200.0 mg/kg/injection, schedule: Q04DX003 (ip), vehicle: saline",97 % of control
same,T/C,"endpoint: mean survival time, dose: 400.0 mg/kg/injection, schedule: Q04DX003 (ip), vehicle: saline",97 % of control
Cc1ccc([N+](=O)[O-])cc1NC(=O)OCC1CCCO1 (centres undefined),T/C,"endpoint: mean survival time, dose: 100.0 mg/kg/injection, schedule: Q04DX002 (ip), vehicle: Klucel (hydroxypropylcellulose) (HPC)",87 % of control
same,T/C,"endpoint: mean survival time, dose: 200.0 mg/kg/injection, schedule: Q04DX002 (ip), vehicle: Klucel (hydroxypropylcellulose) (HPC)",87 % of control
same,T/C,"endpoint: mean survival time, dose: 400.0 mg/kg/injection, schedule: Q04DX002 (ip), vehicle: Klucel (hydroxypropylcellulose) (HPC)",97 % of control
CC(C)(C)CCN1C(=O)c2ccccc2C1=O,T/C,"endpoint: mean survival time, dose: 100.0 mg/kg/injection, schedule: Q01DX001 (ip), vehicle: saline",94 % of control
same,T/C,"endpoint: mean survival time, dose: 100.0 mg/kg/injection, schedule: Q01DX009 (ip), vehicle: saline",100 % of control
same,T/C,"endpoint: mean survival time, dose: 200.0 mg/kg/injection, schedule: Q01DX001 (ip), vehicle: saline",92 % of control
same,T/C,"endpoint: mean survival time, dose: 200.0 mg/kg/injection, schedule: Q01DX009 (ip), vehicle: saline",97 % of control
same,T/C,"endpoint: mean survival time, dose: 400.0 mg/kg/injection, schedule: Q01DX001 (ip), vehicle: saline",92 % of control
same,T/C,"endpoint: mean survival time, dose: 400.0 mg/kg/injection, schedule: Q01DX009 (ip), vehicle: saline",97 % of control
Nc1n[nH]c(=S)n1-c1ccc(Cl)cc1,T/C,"endpoint: mean survival time, dose: 100.0 mg/kg/injection, schedule: Q04DX003 (ip), vehicle: saline with Tween-80",88 % of control
same,T/C,"endpoint: mean survival time, dose: 200.0 mg/kg/injection, schedule: Q04DX003 (ip), vehicle: saline with Tween-80",93 % of control
same,T/C,"endpoint: mean survival time, dose: 400.0 mg/kg/injection, schedule: Q04DX003 (ip), vehicle: saline with Tween-80",93 % of control
CC1(C)N=C(N)N=C(N)N1c1cccc(OCCOc2ccccc2N)c1,T/C,"endpoint: mean survival time, dose: 25.0 mg/kg/injection, schedule: Q01DX001 (ip), vehicle: Klucel (hydroxypropylcellulose) (HPC)",101 % of control
same,T/C,"endpoint: mean survival time, dose: 50.0 mg/kg/injection, schedule: Q01DX001 (ip), vehicle: Klucel (hydroxypropylcellulose) (HPC)",101 % of control
same,T/C,"endpoint: mean survival time, dose: 100.0 mg/kg/injection, schedule: Q01DX001 (ip), vehicle: Klucel (hydroxypropylcellulose) (HPC)",98 % of control
O=C1CCc2ccsc21,T/C,"endpoint: mean survival time, dose: 100.0 mg/kg/injection, schedule: Q04DX002 (ip), vehicle: saline with Tween-80",97 % of control
same,T/C,"endpoint: mean survival time, dose: 200.0 mg/kg/injection, schedule: Q04DX002 (ip), vehicle: saline with Tween-80",97 % of control
